Results as given in US10946012B2, “Methods for inducing tumor regression, inhibiting tumor growth, and inducing apoptosis in breast tumors with geranylgeranyltransferase I inhibitors” (H. Lee Moffitt Cancer Center and Research Institute, Inc., priority 2009, dated 2021).
pIC50: −log10 of the molar value.

Columns and labels:
p27 [1] = test: Immunofluorescence of p27 in MDA-MB-468 cells; type: cell-based, human; details: 50 μM, 48 h
Experimental: MDA-MB-468 cells were plated on a glass coverslip and treated with 50 μM GGTI-2417 or DMSO as a control for 48 h. Medium was aspirated and the cells were washed twice with ice-cold sterile DPBS solution (Invitrogen, Carlsbad, Calif.), fixed with 4% paraformaldehyde at room temperature for 15 min, and then treated with 1% Nonidet P-40 for 30 min at room temperature. After blocking with 5% bovine serum albumin for 30 min at room temperature, cells were incubated with anti-p27 antibody (1:500) at room temperature for 1 h. After washing three times with DPBS solution, cells were incubated with FITC-conjugated secondary antibody (1:1000) for 1 h at room temperature. Cells were then washed three times with sterile DPBS solution, mounted using Vectashield mounting reagent (Vector Laboratories, Inc., Burlingame, Calif.) containing 4′,6′-diamidino-2-phenylindole (DAPI) for nuclear visualization, and analyzed using a Zeiss Axiovert Z-1 Imager microscope (Carl Zeiss, Oberkochen, Germany) at […]. Images were analyzed using ImagePro Plus 6.2 (Media Cybernetics, Bethesda, Md.).

p27 [2] = test: Western blot / immunoprecipitation of p27 and prenylated proteins in MDA-MB-468 cells; type: cell-based, human; set-up: Rap1 geranylgeranylation / HDJ-2 farnesylation / processing / p27 protein levels: dose or concentration left out as unconfirmed
Experimental: MDA-MB-468 cells were lysed using CelLytic™ M Cell Lysis Reagent (Sigma-Aldrich, St. Louis, Mo.) containing protease inhibitor cocktail, 2 mM phenylmethylsulfonylfluoride (PMSF), 2 mM Na3VO4, and 6.4 mg/ml p-nitrophenylphosphate (Sigma-Aldrich). Lysates were incubated overnight with p27 antibody (BD Biosciences, San Jose, Calif.) at 4° C. while rocking; after incubation protein A anti-IgG agarose beads were added and incubated for 2 h at 4° C., then washed four times with an excess of lysis buffer. Samples were then boiled at 100° C. for 10 min in 2×SDS-sample buffer and analyzed by Western blotting as described below.
To prepare whole cell lysates, cells were trypsinized, washed with phosphate buffered saline (PBS) twice, and lysed in 30 mM Hepes, pH 7.5, 10 mM NaCl, 5 mM MgCl2, 25 mM NaF, 1 mM EGTA, 1% Triton-X-100, 10% glycerol, protease inhibitor cocktail, 2 mM PMSF, 2 mM Na3VO4, and 6.4 mg/ml p-nitrophenylphosphate. Lysates were cleared by centrifugation at 12,000×g for 15 min, and the supernatants were collected as whole cell extracts. The protein concentration was determined by the Bradford assay. Proteins were separated by SDS-PAGE and transferred to nitrocellulose membranes, which were then blotted with antibodies specific for whole Rap1 or unprenylated Rap1, Ras, the C-terminal region of pRb, Akt (Santa Cruz Biotechnology, Santa Cruz, Calif.), phospho-Akt(S473) (Cell Signaling, Danvers, Mass.), p27 (BD Biosciences, San Jose, Calif.), phospho-p27(T187) (Invitrogen, Carlsbad, Calif.), HDJ-2 (Lab Vision Corporation, Fremont, Calif.), phosphotyrosine (Millipore, Billerica, Mass.), and β-actin (Sigma-Aldrich, St. Louis, Mo.). Select bands were quantified using AlphaEaseFC densitometry software (AlphaInnotech, San Leandro, Calif.).

[3] = system: MDA-MB-468 breast cancer cells; test: Trypan Blue exclusion assay (proliferation, cell death) in MDA-MB-468 cells; type: cell-based, human
Experimental: (§1) Human MDA-MB-468 and MDA-MB-231 breast cancer cells and murine NIH 3T3 cells were obtained from the ATCC and cultured in DMEM medium. Human SK-Br3 and BT-474 breast cancer cells (ATCC) were cultured in McCoy's 5a medium and Hybri-Care medium, respectively. Mouse embryonic fibroblast (MEF) cells from p27 wild-type and p27 null mice were grown in DMEM. All media were supplemented with 10% fetal calf serum, 10 units/ml penicillin, and 10 μg/ml streptomycin. Subconfluent cells were treated with different concentrations of GGTI, FTI or DMSO vehicle for specific time periods. After treatment, cells were harvested by trypsinization.
Pre-designed siRNA to p27 (Cat #118714) and the negative control (Cat #4611) were purchased from Ambion (Austin, Tex.). Twenty-four hours before transfection, MDA-MB-468 cells were plated onto twelve-well plates in fresh DMEM medium containing 10% FBS and no antibiotics. Transient transfection of siRNA was carried out using Oligofectamine reagent (Invitrogen, Carlsbad, Calif.), following the manufacturer's instructions. In brief, 5 nM of p27 siRNA or control siRNA were mixed with Opti-MEM medium (Invitrogen) in such a way so that the total volume went to 90 μl, and then complexed with a mixture of 2 μl of Oligofectamine and 8 μl Opti-MEM; the total volume of RNA:Oligofectamine complex was 100 μl. The RNA:Oligofectamine complex was then incubated for 20 min at room temperature before adding to the cells. Before transfection, the old medium was discarded, cells were washed once with fresh Opti-MEM and 400 μl of fresh Opti-MEM placed into each well before adding the RNA:Oligofectamine complex to each well. The final diluted volume on each well was 500 μl. After 8 h, 500 μl DMEM containing 30% FBS was added to each well and cells were further incubated for 40 h.
(§2) Adherent cells were harvested by trypsinization and diluted with 0.4% Trypan Blue dye and counted on a hemacytometer. Cells excluding the dye were scored as live cells, whereas cells absorbing the dye were scored as dead cells. Cell proliferation was determined by dividing the number of live cells in the treated sample by the number of live cells in the control, and the degree of cell death was expressed as percentage of dead cells of the total cell number.

p27 wild-type MEFs = test: Trypan Blue exclusion assay in p27 wild-type MEFs; type: cell-based, mouse; details: 50 μM, 72 h, p27 wt MEFs
Experimental: as §1, §2

[4] = system: MDA-MB-231, SK-Br3 and BT-474 breast cancer cells; test: Effects in other human breast cancer cell lines; type: cell-based; details: 50 μM; all three cell lines
Experimental: as §1
To prepare whole cell lysates, cells were trypsinized, washed with phosphate buffered saline (PBS) twice, and lysed in 30 mM Hepes, pH 7.5, 10 mM NaCl, 5 mM MgCl2, 25 mM NaF, 1 mM EGTA, 1% Triton-X-100, 10% glycerol, protease inhibitor cocktail, 2 mM PMSF, 2 mM Na3VO4, and 6.4 mg/ml p-nitrophenylphosphate. […] The protein concentration was determined by the Bradford assay. […] Select bands were quantified using AlphaEaseFC densitometry software (AlphaInnotech, San Leandro, Calif.).
Adherent cells were harvested by trypsinization and diluted with 0.4% Trypan Blue dye and counted on a hemacytometer. Cells excluding the dye were scored as live cells, whereas cells absorbing the dye were scored as dead cells. […]

**Q.** Which results are given for `COC(=O)[C@H](CC(C)C)NC(=O)N1CCN(Cc2nc[nH]c2C)C(=O)[C@@H]1Cc1ccccc1` [GGTI-2417]?
**A.** cytosolic p27 levels (p27 [1]): not affected significantly; increase of nuclear levels of p27 (p27 [1]): 6 fold; increase of p27 Tyr phosphorylation (p27 [2]; 50 μM, MDA-MB-468): 3.5 fold; increase of p27 amounts (immunoprecipitated p27) (p27 [2]; 50 μM, MDA-MB-468): 11.9 fold; HDJ-2 farnesylation / processing (p27 [2]; MDA-MB-468, 48 h): not the farnesylation of HDJ-2; Rap1 geranylgeranylation (p27 [2]; MDA-MB-468, 48 h): inhibited the geranylgeranylation of Rap1; p27 protein levels (p27 [2]; MDA-MB-468, 48 h): increased p27 protein levels in a time-dependent manner; tumor cell death in the presence of p27 siRNA ([3]; 5 nM p27 siRNA, 50 μM GGTI-2417 or 1 μM taxol): unable to induce tumor cell death; tumor cell death ([3]; 50 μM, absence of p27 siRNA, vehicle 10.3%): 37.2%; pIC50 ([3]; MDA-MB-468, 48 h, read-out: IC50, inhibition of cell proliferation): ~5.40; inhibition of proliferation (p27 wild-type MEFs): 89.0±3.1%; cell death (p27 wild-type MEFs; vehicle 22.4±7.2%): 53.4±7.0%; cell proliferation [4]: inhibited cell proliferation; p27 protein levels [4]: induced p27 protein levels
